Test results reported in patent US6608004B2, “Substituted 2-aryl-1,2,4-triazine-3,5-di(thi)ones” (priority 1999, dated 2003).
Values belong to the compound of their own block, whether it stands above or below them.

Assays:
[1] = logP determination by HPLC, reversed-phase column (C 18), EEC Directive 79/831 Annex V.A8; conditions: for chromatographic logP: pH 2
Source text: (a) Mobile phases for the determination in the acidic range: 0.1% aqueous phosphoric acid, acetonitrile; linear gradient from 10% acetonitrile to 90% acetonitrile—the corresponding measurement results are labelled in Table 1 with ^a).
(b) Mobile phases for the determination in the neutral range: 0.01 molar aqueous phosphate buffer solution, acetonitrile; linear gradient from 10% acetonitrile to 90% acetonitrile—the corresponding measurement results are labelled in Table 1 with ^b).

[2] = tested on: weeds; assay: Post-Emergence Test (Example B), activity against weeds; format: in vivo; conditions: test plants of a height of 5-15 cm sprayed, rated after three weeks
Source text: (§1) Solvent: 5 parts by weight of acetone
(§2) Emulsifier: 1 part by weight of alkylaryl polyglycol ether
(§3) After three weeks, the degree of damage to the plants is rated in % damage in comparison to the development of the untreated control.

[3] = tested on: weeds; assay: Pre-Emergence Test (Example A), activity against weeds; format: in vivo; conditions: soil sprayed about 24 hours after sowing, rated after three weeks
Source text: as §1, §2
(§4) Seeds of the test plants are sown in normal soil.
0%=no effect (like untreated control)

[4] = tested on: crop plants, such as, for example, barley and wheat; assay: Post-Emergence Test (Example B), tolerance by crop plants
Source text: as §1, §2, §3

[5] = tested on: crop plants, such as, for example, barley, wheat, rapeseed, soya and sugar beet; assay: Pre-Emergence Test (Example A), tolerance by crop plants; format: in vivo
Source text: as §1, §2, §4

[6] = reversed-phase HPLC column (C 18)

melting point: > 250 °C
SMILES: N#Cc1cc(F)c(-n2ncc(=O)[nH]c2=O)cc1F

SMILES: CCS(=O)(=O)N(C(=O)Oc1ccccc1)c1cc(-n2ncc(=O)n(C)c2=O)c(F)cc1C#N [Example 1, 2-[5-(N-phenoxy-carbonyl-N-ethylsulphonylamino)-4-cyano-2-fluoro-phenyl]-4-methyl-1,2,4-triazine-3,5(2H,4H)-dione]
melting point: 181 °C | chromatographic logP [1]: 2.76

melting point: 118 °C | chromatographic logP [1, 6]: 1.97
SMILES: C=CC(=O)N(c1cc(-n2ncc(=O)n(C)c2=O)c(F)cc1C#N)S(=O)(=O)CC [Example 2, 2-[5-(N-acryloyl-N-ethylsulphonylamino)-4-cyano-2-fluoro-phenyl]-4-methyl-1,2,4-triazine-3,5(2H,4H)-dione]
activity against weeds (degree of damage) [2]: very strong activity | activity against weeds (degree of damage) [3]: very strong activity | tolerance by crop plants ([4]; post-emergence, barley and wheat, rated after three weeks): essentially being tolerated well | tolerance by crop plants ([5]; pre-emergence, barley, wheat, rapeseed, soya and sugar beet, rated after three weeks): essentially being tolerated well

logP a) [1]: m.p.: 222 °C logP = 2.96^a)
SMILES: CCS(=O)(=O)N(C(=O)COc1ccccc1)c1cc(-n2ncc(=O)n(C)c2=O)c(F)cc1C#N [Example 43]
activity against weeds (degree of damage) [2]: very strong activity | activity against weeds (degree of damage) [3]: very strong activity | tolerance by crop plants ([4]; in vivo): essentially being tolerated well | tolerance by crop plants ([5]; in vivo): essentially being tolerated well

SMILES: CCS(=O)(=O)N(C(=O)CCc1ccc(Cl)c(Cl)c1)c1cc(-n2ncc(=O)n(C)c2=O)c(F)cc1C#N [Example 44]
activity against weeds (degree of damage) [2]: very strong activity | activity against weeds (degree of damage) [3]: very strong activity | tolerance by crop plants ([4]; in vivo): essentially being tolerated well | tolerance by crop plants ([5]; in vivo): essentially being tolerated well | logP a) [1]: m.p.: 142 °C logP = 2.52^a)

logP a) [1]: m.p.: 221 °C logP = 2.58^a)
SMILES: CCS(=O)(=O)N(C(=O)Cc1ccc(OC)cc1)c1cc(-n2ncc(=O)n(C)c2=O)c(F)cc1C#N [Example 45]
activity against weeds (degree of damage) [2]: very strong activity | activity against weeds (degree of damage) [3]: very strong activity | tolerance by crop plants ([4]; in vivo): essentially being tolerated well | tolerance by crop plants ([5]; in vivo): essentially being tolerated well

SMILES: CCS(=O)(=O)N(C(=O)CCC1CCCC1)c1cc(-n2ncc(=O)n(C)c2=O)c(F)cc1C#N [Example 46]
activity against weeds (degree of damage) [2]: very strong activity | activity against weeds (degree of damage) [3]: very strong activity | tolerance by crop plants ([4]; in vivo): essentially being tolerated well | tolerance by crop plants ([5]; in vivo): essentially being tolerated well | logP a) [1]: m.p.: 143 °C logP = 3.34^a)

logP a) [1]: m.p.: 93 °C logP = 2.66^a)
SMILES: CCS(=O)(=O)N(C(=O)C1CCCC1)c1cc(-n2ncc(=O)n(C)c2=O)c(F)cc1C#N [Example 47]
activity against weeds (degree of damage) [2]: very strong activity | activity against weeds (degree of damage) [3]: very strong activity | tolerance by crop plants ([4]; in vivo): essentially being tolerated well | tolerance by crop plants ([5]; in vivo): essentially being tolerated well

SMILES: CCS(=O)(=O)N(C(=O)c1ccc(C(C)(C)C)cc1)c1cc(-n2ncc(=O)n(C)c2=O)c(F)cc1C#N [Example 49]
activity against weeds (degree of damage) [2]: very strong activity | activity against weeds (degree of damage) [3]: very strong activity | tolerance by crop plants ([4]; in vivo): essentially being tolerated well | tolerance by crop plants ([5]; in vivo): essentially being tolerated well | logP a) [1]: m.p.: 119 °C logP = 3.57^a)

logP a) [1]: m.p.: 74 °C logP = 3.22^a)
SMILES: CCOc1ccc(CCC(=O)N(c2cc(-n3ncc(=O)n(C)c3=O)c(F)cc2C#N)S(=O)(=O)CC)cc1 [Example 51]
activity against weeds (degree of damage) [2]: very strong activity | activity against weeds (degree of damage) [3]: very strong activity | tolerance by crop plants ([4]; in vivo): essentially being tolerated well | tolerance by crop plants ([5]; in vivo): essentially being tolerated well

melting point: 233 °C | chromatographic logP [1, 6]: 1.66
SMILES: CCS(=O)(=O)Nc1cc(-n2ncc(=O)n(C)c2=O)c(F)cc1C#N [Example (II-1), 2-(2-fluoro-4-cyano-5-ethylsulphonylamino-phenyl)-4-methyl-1,2,4-triazine-3,5(2H,4H)-dione]
